{
  "source": "patent EP2632470B1",
  "about": "(priority 2010, dated 2012)",
  "key": {"Malassezia furfur": {"test_system": "Malassezia furfur", "assay": "Intrinsic anti-Malassezia potency, growth inhibition by optical density", "format": "cell-based", "method": "To measure the growth inhibition properties of test materials against Malassezia, we carried out the following protocol.\nStarting cultures are prepared by incubating with shaking at 31°. Cells (5 ml of culture) are collected by centrifugation and suspended in 50 ml fresh mDixon medium. […] The plates are shaken vigorously on a Heidolph Titramax 100 overnight at 31°. To increase the humidity, water-soaked cotton batting is placed over the plates.\nAs a control, the optical density of untreated M. furfur is measured after overnight incubation. As another control, the optical density of the starting culture is measured. The difference between these optical densities represents the amount of growth of M. furfur."}, "M. furfur 7982": {"test_system": "M. furfur 7982", "assay": "Fractional Inhibitor Concentration (FIC) test of chelator combined with ZPT", "format": "cell-based", "conditions": "combination with ZPT (from 12.5ppm); chelator from 400ppm or 800ppm; 33°C, 2 days; average of duplicate plates", "text": "Fractional Inhibitor Concentration (FIC) is a conventional methodology for evaluating antimicrobial interactions. In an embodiment of the present invention, an FIC is used to determine combinatorial effects of two chemicals on anti-Malassezia activity in a tissue culture setting.\n• 1. Each FIC assay is run in duplicate. • 2. Low levels of M. furfur 7982 cells are inoculated into each well of a 96 well plate. • 3. Chemical #1 (in our assays, this is always ZPT) is titrated (2x concentration reductions) from right to left across each row of the plate, starting at 12.5ppm final concentration and ending at 0ppm. • 4. […] Plates are incubated at 33°C, 60%RH for 2 days with agitation. • 6. Optical densities (OD's) are then determined using a spectrophotometer.\n1. […]. The lowest concentration value of chemical #1, both by itself and with the lowest concentration of chemical #1 which boosts chemical #2's potency, that inhibit growth are determined (see Appendix 1). 4. Likewise, the lowest concentration of chemical #2, both by itself and with the lowest concentration of chemical #2 that boosts chemical #1's potency, that inhibit growth are determined (see Appendix 1). 5. The FIC value for the duplicate plates is determined using the calculations below: FIC = (lowest inhibitory dose of Chemical#1 by itself)/(inhibitory dose of Chemical#1 in a well that also contains Chemical#2also contains Chemical#1) + (lowest inhibitory dose of Chemical#2by itselflowest)/(lowest inhibitory dose of Chemical#2in a well that) [formula] ave FIC VALUE = (FIC value for plate 1+FIC value for plate2); 2 [formula] 6. The average FIC value is then determined, and the combinatorial effect of the two chemicals is classified according to the chart below: […]"}, "[1]": {"conditions": "Malassezia furfur, read-out: Intrinsic Anti-Malassezia Potency (IC50, µM)"}, "[2]": {"conditions": "Malassezia furfur, mDixon medium, overnight at 31°, optical density 600 nm, read-out: Intrinsic Anti-Malassezia Potency (IC50)"}},
  "note": "Where a name gives a salt, the structure may show the parent alone. Read-outs that look alike come from different tables or passages of the source.",
  "data": [
    {"compound": "N[C@@H](COP(=O)(O)O)C(=O)O", "note": "[L-2-Amino-3-phosphopropanoic acid]", "values": [
      {"measurement": "IC50", "setting": "Malassezia furfur; [1]", "value": "> 500", "unit": "µM"}
    ]},
    {"compound": "C1CNCCNCCNCCNCCNCCN1", "note": "[1,4,7,10,13,16-Hexaazacyclooctadecane]", "values": [
      {"measurement": "IC50", "setting": "Malassezia furfur; [2]", "value": "> 500", "unit": "µM"}
    ]},
    {"compound": "Oc1ccc2ccccc2c1N=Nc1nccs1", "note": "[1-(2-Thiazoylazo)-2-naphthol]", "values": [
      {"measurement": "IC50", "setting": "Malassezia furfur; [2]", "value": 250, "unit": "µM"}
    ]},
    {"compound": "N-Hydroxy-6-octyloxypyridine-2(1H)one, zinc salt [HP-100 Zn]", "values": [
      {"measurement": "FIC", "setting": "M. furfur 7982", "value": 0.7}
    ]},
    {"compound": "NCCc1ccccn1", "note": "[2-(2-aminoethyl)-pyridine]", "values": [
      {"measurement": "IC50", "setting": "Malassezia furfur; [2]", "value": "> 500", "unit": "µM"}
    ]},
    {"compound": "O=c1cc(CO)occ1O", "note": "[kojic acid]", "values": [
      {"measurement": "IC50", "setting": "Malassezia furfur; [2]", "value": 704, "unit": "µM"}
    ]},
    {"compound": "Cc1occc(=O)c1O", "note": "[maltol]", "values": [
      {"measurement": "IC50", "setting": "Malassezia furfur; [2]", "value": 793, "unit": "µM"}
    ]},
    {"compound": "Cc1c(O)c(=O)ccn1C", "note": "[3-Hydroxy-1,2-dimethyl-4(1H)-pyridone]", "values": [
      {"measurement": "IC50", "setting": "Malassezia furfur; [2]", "value": 719, "unit": "µM"}
    ]},
    {"compound": "zinc salt of 1-hydroxy-2-pyridinethione [Zinc Pyrithione]", "values": [
      {"measurement": "IC50", "setting": "Malassezia furfur; mDixon medium, overnight at 31°, optical density 600 nm, read-out: Intrinsic Anti-Malassezia Potency (IC50)", "value": 15, "unit": "µM"}
    ]},
    {"compound": "S=C(N=Nc1ccccc1)NNc1ccccc1", "note": "[1,5-Diphenyl-1,2,4,5-tetraazapent-1-en-3-thione]", "values": [
      {"measurement": "IC50", "setting": "Malassezia furfur; [2]", "value": 62.5, "unit": "µM"}
    ]},
    {"compound": "O=C(O)CN(CCN(CC(=O)O)CC(=O)O)CC(=O)O", "note": "[Ethylenediaminetetraacetic acid (EDTA), Ethylenediaminetetraacetic acid]", "values": [
      {"measurement": "IC50", "setting": "Malassezia furfur; [1]", "value": "> 500", "unit": "µM"},
      {"measurement": "anti-fungal effectiveness (in words)", "setting": "Malassezia furfur; comment on Table 1 data", "value": "not to be effective"}
    ]},
    {"compound": "O=C1c2cccc3cccc(c23)C(=O)N1O", "note": "[N,N-Naphthaloylhydroxylamine]", "values": [
      {"measurement": "FIC", "setting": "M. furfur 7982", "value": 0.8}
    ]},
    {"compound": "Cc1occc(=S)c1O", "note": "[Thiomaltol]", "values": [
      {"measurement": "FIC", "setting": "M. furfur 7982", "value": 0.8}
    ]},
    {"compound": "1,2-Dimethyl-3-hydroxy-4-pyridone, Zinc salt", "values": [
      {"measurement": "FIC", "setting": "M. furfur 7982", "value": 0.5}
    ]},
    {"compound": "Oc1cccc2cccnc12", "note": "[8-hydroxyquinoline]", "values": [
      {"measurement": "IC50", "setting": "Malassezia furfur; [2]", "value": 138, "unit": "µM"}
    ]},
    {"compound": "c1cnc2c(c1)ccc1cccnc12", "note": "[1,10-Phenanthroline]", "values": [
      {"measurement": "IC50", "setting": "Malassezia furfur; [2]", "value": 166, "unit": "µM"}
    ]},
    {"compound": "Oc1c(I)cc(Cl)c2cccnc12", "note": "[5-Chloro-8-hydroxy-7-iodoquinoline]", "values": [
      {"measurement": "IC50", "setting": "Malassezia furfur; [2]", "value": 65.5, "unit": "µM"}
    ]},
    {"compound": "Cc1ccc2ccc3ccc(C)nc3c2n1", "note": "[2,9-dimethyl-1,10-phenanthroline]", "values": [
      {"measurement": "IC50", "setting": "Malassezia furfur; [2]", "value": "> 480", "unit": "µM"}
    ]},
    {"compound": "CCC(NCCNC(CC)C(=O)O)C(=O)O", "note": "(stereo not shown) [Ethylenediiminodi-2-butanoic acid]", "values": [
      {"measurement": "IC50", "setting": "Malassezia furfur; [1]", "value": "> 500", "unit": "µM"}
    ]},
    {"compound": "c1ccc(-c2cccc(-c3ccccn3)n2)nc1", "note": "[2,2':6',2\"-terpyridine]", "values": [
      {"measurement": "IC50", "setting": "Malassezia furfur; [2]", "value": 86, "unit": "µM"}
    ]},
    {"compound": "NCCC(=O)N[C@@H](Cc1c[nH]cn1)C(=O)O", "note": "[beta-Alanyl-L-histidine (L-Carnosine), beta-Alanyl-L-histidine]", "values": [
      {"measurement": "IC50", "setting": "Malassezia furfur; [2]", "value": "> 500", "unit": "µM"}
    ]},
    {"compound": "O=C(O)CN(CCO)CCO", "note": "[N,N-Bis(2-hydroxyethyl)glycine (Bicine), N,N-Bis(2-hydroxyethyl)glycine]", "values": [
      {"measurement": "IC50", "setting": "Malassezia furfur; [2]", "value": "> 500", "unit": "µM"}
    ]},
    {"compound": "Benzohydroxamic acid, Zinc Salt", "values": [
      {"measurement": "FIC", "setting": "M. furfur 7982", "value": 0.3}
    ]},
    {"compound": "O=C(O)CN(CC(=O)O)[C@@H]1CCCC[C@H]1N(CC(=O)O)CC(=O)O", "note": "(relative stereo) [trans-1,2-Cyclohexylenedinitrilotetraacetic acid]", "values": [
      {"measurement": "IC50", "setting": "Malassezia furfur; [1]", "value": 500, "unit": "µM"}
    ]},
    {"compound": "c1ccc(CN(CCN(Cc2ccccn2)Cc2ccccn2)Cc2ccccn2)nc1", "note": "[N,N,N',N-tetrakis(2-pyridylmethyl) ethylenediamine]", "values": [
      {"measurement": "IC50", "setting": "Malassezia furfur; [2]", "value": 71, "unit": "µM"}
    ]},
    {"compound": "Thiomaltol, Zinc salt", "values": [
      {"measurement": "FIC", "setting": "M. furfur 7982", "value": 0.5}
    ]},
    {"compound": "Oc1ccc(N=Nc2nccs2)c(O)c1", "note": "[4-(2-thiazolylazo)-resorcinol]", "values": [
      {"measurement": "IC50", "setting": "Malassezia furfur; [2]", "value": "> 900", "unit": "µM"}
    ]},
    {"compound": "CC(C)c1cccc(O)c(=O)c1", "note": "[1-Hydroxy-4-(1-methylethyl)cyclohepta-3,5,7-trien-2-one]", "values": [
      {"measurement": "IC50", "setting": "Malassezia furfur; [1]", "value": 65, "unit": "µM"}
    ]},
    {"compound": "Maltol, Zinc salt", "values": [
      {"measurement": "FIC", "setting": "M. furfur 7982", "value": 0.1}
    ]},
    {"compound": "Oc1c(Cl)cc(Cl)c2cccnc12", "note": "[5,7-dichloro-8-hydroxyquinoline]", "values": [
      {"measurement": "IC50", "setting": "Malassezia furfur; [2]", "value": 23.4, "unit": "µM"}
    ]},
    {"compound": "CCCCCCCCOc1cccc(=O)n1O", "note": "[HP-101, N-Hydroxy-6-octyloxypyridine-2(1H)one, ethanolamine salt]", "values": [
      {"measurement": "IC50", "setting": "Malassezia furfur; [2]", "value": 54.6, "unit": "µM"},
      {"measurement": "FIC", "setting": "M. furfur 7982", "value": 0.62}
    ]},
    {"compound": "O=C(O)CN1CCCN(CC(=O)O)CCN(CC(=O)O)CCCN(CC(=O)O)CC1", "note": "[1,4,8,11-Tetraazacyclotetradecane-N,N',N\",N'''-tetraacetic acid]", "values": [
      {"measurement": "IC50", "setting": "Malassezia furfur; [2]", "value": "> 500", "unit": "µM"}
    ]}
  ]
}
